According to ChEMBL document CHEMBL1201862, “PubChem BioAssay data set” (2004):
Calls of active or inactive are those of the source.

Experiments:
[1] = molecular target: Potassium voltage-gated channel subfamily KQT member 2 (Rattus norvegicus, UniProt O88943); experiment: KCNQ2 potassium channel inhibitors, dose response, cell-based, automated electrophysiology, set II, rat KCNQ2 (AID 588637); type: functional
[2] = ARNT/TACC3 interaction disruptors, potency, confirmation, biochemical, AlphaScreen, cherry-picked samples (AID 651703); type: functional, Homo sapiens;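 also: His-tagged ARNT PAS-B domain paired with GST-TACC3 E629A dimer coactivator fragment; potency of inhibitors that break up the complex and lower AlphaScreen signal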
[3] = molecular target: Hepatocyte nuclear factor 4-alpha (Homo sapiens, UniProt P41235); type: functional, cell-based;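 also: biochemical luminescence-based dose-response counterscreen measuring inhibition of HNF4 dimerization, run alongside a screen for blockers of ABHD5–perilipin-5 interaction; split luciferase complementation of HNF4 fusion proteins in cell lysate measuring dimerization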
Keap1/Nrf2 = Keap1/Nrf2 (Homo sapiens, UniProt Q14145); experiment: Keap1-Nrf2 protein-protein interaction inhibitors, dose response, biochemical, fluorescence polarization, cherry-picked samples (AID 588683)
[4] = molecular target: UDP-galactopyranose mutase (Mycobacterium tuberculosis, UniProt P9WIQ1); experiment: Inhibitors of Mycobacterium tuberculosis UDP-galactopyranose mutase (UGM) enzyme Measured in Biochemical System Using Plate Reader - 2105-02_Inhibitor_Dose_CherryPick_Activity. [Related pubchem assays (depositor defined):AID504439]
Beta-lactamase [5] = molecular target: Beta-lactamase (Salmonella choleraesuis (strain SC-B67), UniProt Q5J463)
Beta-lactamase [6] = molecular target: Beta-lactamase (Pseudomonas aeruginosa, UniProt Q79MP6);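 also: biochemical dose-response test of metallo-beta-lactamase enzyme inhibition, read out by epi-absorbance; purified recombinant IMP-1 metallo-beta-lactamase with nitrocefin as substrate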
ORF 73 = molecular target: T1, ORF 73 (Human herpesvirus 8, UniProt O40947); experiment: inhibitors of C-LANA binding to LBS DNA, dose response, biochemical, fluorescence polarization, cherry-picked samples (AID 504725); design: species or system Human gammaherpesvirus 8;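 also: fluorescence polarization of a labeled DNA duplex reporting LANA DNA binding; potency is for inhibitors that block LANA binding to the DNA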
T1 sequence (O40947 whole entry): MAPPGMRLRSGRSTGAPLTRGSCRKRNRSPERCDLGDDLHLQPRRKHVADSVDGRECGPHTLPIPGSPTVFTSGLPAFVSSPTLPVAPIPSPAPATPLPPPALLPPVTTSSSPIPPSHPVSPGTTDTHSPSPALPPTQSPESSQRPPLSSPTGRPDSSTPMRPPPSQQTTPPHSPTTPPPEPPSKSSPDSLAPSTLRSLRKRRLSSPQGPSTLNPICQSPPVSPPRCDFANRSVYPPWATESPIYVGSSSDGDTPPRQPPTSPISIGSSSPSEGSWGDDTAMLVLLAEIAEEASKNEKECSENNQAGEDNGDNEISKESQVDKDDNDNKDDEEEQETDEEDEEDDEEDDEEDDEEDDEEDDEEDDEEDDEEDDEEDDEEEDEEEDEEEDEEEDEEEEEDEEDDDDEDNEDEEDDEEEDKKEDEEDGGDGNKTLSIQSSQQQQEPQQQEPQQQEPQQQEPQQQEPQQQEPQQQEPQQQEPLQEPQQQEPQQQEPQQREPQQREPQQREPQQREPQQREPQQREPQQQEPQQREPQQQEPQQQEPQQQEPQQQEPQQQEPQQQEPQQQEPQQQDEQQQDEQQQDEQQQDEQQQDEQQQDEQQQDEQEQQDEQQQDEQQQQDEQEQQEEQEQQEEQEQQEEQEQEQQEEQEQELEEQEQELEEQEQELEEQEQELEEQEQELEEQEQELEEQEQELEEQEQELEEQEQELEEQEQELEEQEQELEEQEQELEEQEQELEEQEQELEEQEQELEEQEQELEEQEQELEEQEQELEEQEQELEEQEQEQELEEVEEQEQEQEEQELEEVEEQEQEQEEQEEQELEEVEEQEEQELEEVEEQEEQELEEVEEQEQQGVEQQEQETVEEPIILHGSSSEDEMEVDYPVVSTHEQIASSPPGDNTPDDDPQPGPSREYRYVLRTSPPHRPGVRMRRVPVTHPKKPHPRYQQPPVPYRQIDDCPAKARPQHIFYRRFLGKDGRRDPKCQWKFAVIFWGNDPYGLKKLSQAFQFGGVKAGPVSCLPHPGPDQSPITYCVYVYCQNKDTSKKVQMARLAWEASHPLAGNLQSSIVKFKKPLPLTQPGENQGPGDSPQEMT

[7] = molecular target: NAD-dependent protein deacylase sirtuin-5, mitochondrial (Homo sapiens, UniProt Q9NXA8); experiment: SIRT5 desuccinylase inhibitors, dose response, biochemical, fluorescence imaging, cherry-pick, set 5 (AID 720591);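 also: desuccinylation of succinyl peptide AMC substrate read as fluorescence after trypsin release; potency of inhibitors that lower fluorescence and may act on trypsin instead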
[8] = molecular target: T2, Probable nicotinate-nucleotide adenylyltransferase (Staphylococcus aureus (strain N315), UniProt P65502); type: functional, Staphylococcus aureus subsp. aureus N315;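 as to IC50 Mean: confirmatory dose-response retesting of NadD inhibitor hits first found in an ultra-high-throughput screen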
[9] = molecular target: T2, Probable nicotinate-nucleotide adenylyltransferase; type: functional, Staphylococcus aureus subsp. aureus N315; settings: read-out: IC50_Mean
[10] = molecular target: T3, Sentrin-specific protease 1 (Homo sapiens, UniProt Q9P0U3); experiment: potency of human SENP1 inhibitors, dose response, biochemical, kinetic FRET (AID 651697); type: functional; settings: read-out: IC50_Mean
[11] = molecular target: T3, Sentrin-specific protease 1; experiment: Dose response confirmation of small molecule inhibitors of the catalytic domain of the SUMO protease, SENP1 in a FRET assay.; type: functional; settings: read-out: IC50_Mean
[12] = molecular target: Tyrosine-protein phosphatase non-receptor type 11 (Homo sapiens, UniProt Q06124); experiment: SHP2 phosphatase inhibition, dose response, selectivity assay for STEP inhibitor project, biochemical (AID 602367); type: functional; settings: read-out: IC50_Mean
[13] = molecular target: Tyrosine-protein phosphatase non-receptor type 5 (Homo sapiens, UniProt P54829); experiment: STEP phosphatase inhibitors, confirmation, biochemical, fluorescence intensity, uHTS hits (AID 602372); type: functional; settings: read-out: IC50_Mean
[14] = molecular target: Dual specificity protein phosphatase 3 (Homo sapiens, UniProt P51452); experiment: VHR phosphatase inhibition, dose response, selectivity assay for STEP inhibitor project, biochemical (AID 602374); type: functional; settings: read-out: IC50_Mean
[15] = molecular target: T4, Carboxy-terminal domain RNA polymerase II polypeptide A small phosphatase 1 (Homo sapiens, UniProt Q9GZU7); experiment: inhibitors of CTDSP1, concentration-response testing, biochemical assay, absorbance-based, actives from ultra-high-throughput screening (AID 540297); type: functional
T4 sequence (Q9GZU7 whole entry): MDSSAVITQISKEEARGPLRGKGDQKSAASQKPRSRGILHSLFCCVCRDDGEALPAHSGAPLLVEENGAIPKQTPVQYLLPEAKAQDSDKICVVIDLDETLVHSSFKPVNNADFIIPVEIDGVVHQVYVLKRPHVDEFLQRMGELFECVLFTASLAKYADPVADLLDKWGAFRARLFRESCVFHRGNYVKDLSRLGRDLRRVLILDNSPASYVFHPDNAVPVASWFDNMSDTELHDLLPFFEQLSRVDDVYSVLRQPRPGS

Streptokinase A = molecular target: T5, Streptokinase A (Streptococcus pyogenes serotype M1, UniProt P10520); experiment: S. pyogenes streptokinase expression inhibitors, potency, dose response, plasminogen activation absorbance, OD405 (AID 1914); type: functional, Streptococcus pyogenes M1 GAS;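 also: secreted streptokinase activity via plasminogen activation per viability signal from cell pellet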
T5 sequence (P10520 whole entry): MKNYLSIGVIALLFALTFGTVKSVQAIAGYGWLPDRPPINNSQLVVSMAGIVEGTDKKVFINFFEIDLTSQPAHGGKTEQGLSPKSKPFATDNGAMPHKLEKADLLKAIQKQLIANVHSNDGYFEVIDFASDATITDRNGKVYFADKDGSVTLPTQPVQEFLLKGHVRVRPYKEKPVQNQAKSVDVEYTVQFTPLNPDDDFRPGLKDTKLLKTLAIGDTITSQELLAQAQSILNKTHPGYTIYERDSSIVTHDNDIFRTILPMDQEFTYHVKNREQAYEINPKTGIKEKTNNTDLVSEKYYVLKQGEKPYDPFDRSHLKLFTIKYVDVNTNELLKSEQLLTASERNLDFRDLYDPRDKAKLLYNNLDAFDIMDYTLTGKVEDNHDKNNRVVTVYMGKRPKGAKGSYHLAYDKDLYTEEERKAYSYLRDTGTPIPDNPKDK

Streptococcus = experiment: Group A Streptococcus viability loss, dose response, counter-screen for streptokinase expression inhibitor project, luminescence, BacTiterGlo (AID 1915); type: functional, organism-based;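 also: potency for reduction of bacterial viability or growth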
[16] = test system: Streptococcus sp. 'group A'; experiment: growth inhibition of control SK(-) GAS strain, dose response, counter-screen for streptokinase expression inhibitor project, luminescence, kanamycin, BacTiterGlo, confirmation (AID 1900); type: functional, organism-based
HEK293 = experiment: inhibitors of LMP1-driven NF-kB reporter, dose response, cell-based, HEK293, luciferase, cherry-pick (AID 588343); type: functional; settings: Homo sapiens
[17] = molecular target: Latent membrane protein 1 (Human herpesvirus 4 (strain B95-8), UniProt P03230); experiment: TES1-eGFP NF-kB reporter inhibition versus Tet-On dsRED, dose response, selectivity assay for LMP1 NF-kB inhibitor project, imaging, HEK293T, dual-color eGFP/dsRED, cherry-picks (AID 588398); type: functional, cell-based
[18] = cytotoxicity toward NIH3T3 fibroblasts, dose response, counter-screen, cell-based, ATP luminescence, mouse fibroblasts (AID 2010); type: functional;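 also: cells exposed to compound for about 90 hours before reading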
[19] = inhibitors of intracellular T. cruzi replication, confirmation, NIH3T3 host cells, beta-gal luminescence (AID 2044); type: functional, cell-based;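 also: intracellular parasites grown in NIH/3T3 mouse fibroblasts as host cells; luminescent beta-galactosidase reporter signal from transgenic T. cruzi replicating inside host cells; inhibitors lower the luminescence signal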
[20] = molecular target: T6, Apoptotic protease-activating factor 1 (Homo sapiens, UniProt O14727); experiment: SAR analysis of small molecule Activators of Apaf-1 in a Fluorescent assay.; type: functional; settings: read-out: EC50_Mean;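 also: caspase-3 cleavage of fluorogenic Rh110 DEVD substrate downstream of apoptosome activation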
T6 sequence (O14727 whole entry): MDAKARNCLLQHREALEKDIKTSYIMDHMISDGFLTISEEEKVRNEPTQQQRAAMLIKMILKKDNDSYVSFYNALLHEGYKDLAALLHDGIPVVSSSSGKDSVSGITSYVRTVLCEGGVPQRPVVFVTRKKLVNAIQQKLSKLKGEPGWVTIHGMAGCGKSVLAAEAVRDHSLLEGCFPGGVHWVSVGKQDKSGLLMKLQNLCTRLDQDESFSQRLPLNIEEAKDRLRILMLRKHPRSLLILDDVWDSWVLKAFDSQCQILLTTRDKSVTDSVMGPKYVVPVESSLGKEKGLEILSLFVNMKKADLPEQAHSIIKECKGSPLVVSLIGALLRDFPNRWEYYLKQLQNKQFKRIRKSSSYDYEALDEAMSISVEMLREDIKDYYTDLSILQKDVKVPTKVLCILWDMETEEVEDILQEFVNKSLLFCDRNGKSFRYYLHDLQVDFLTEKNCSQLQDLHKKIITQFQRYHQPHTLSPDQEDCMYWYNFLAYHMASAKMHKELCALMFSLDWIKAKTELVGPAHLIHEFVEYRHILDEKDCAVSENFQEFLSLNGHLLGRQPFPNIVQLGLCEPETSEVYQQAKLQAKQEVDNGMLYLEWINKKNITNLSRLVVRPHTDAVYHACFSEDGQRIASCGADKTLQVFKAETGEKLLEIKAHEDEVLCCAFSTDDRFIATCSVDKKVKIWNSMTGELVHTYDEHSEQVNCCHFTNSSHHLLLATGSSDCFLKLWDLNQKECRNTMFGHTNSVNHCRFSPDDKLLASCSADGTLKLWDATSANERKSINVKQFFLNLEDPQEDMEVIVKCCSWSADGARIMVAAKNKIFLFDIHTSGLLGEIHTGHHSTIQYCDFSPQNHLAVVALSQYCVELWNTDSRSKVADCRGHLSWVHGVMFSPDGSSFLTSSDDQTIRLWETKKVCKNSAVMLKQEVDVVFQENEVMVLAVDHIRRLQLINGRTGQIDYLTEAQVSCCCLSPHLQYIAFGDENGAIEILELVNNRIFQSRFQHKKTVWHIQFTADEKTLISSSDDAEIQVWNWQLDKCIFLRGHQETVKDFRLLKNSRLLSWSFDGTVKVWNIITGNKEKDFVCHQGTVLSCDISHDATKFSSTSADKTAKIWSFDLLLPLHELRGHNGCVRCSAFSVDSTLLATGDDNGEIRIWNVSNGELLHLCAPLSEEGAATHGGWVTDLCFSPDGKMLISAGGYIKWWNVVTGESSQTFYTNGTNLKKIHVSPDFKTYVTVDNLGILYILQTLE

[21] = molecular target: Cell division cycle 7-related protein kinase (Homo sapiens, UniProt O00311); type: functional;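 also: value obtained from a kinome-wide kinase panel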
[22] = molecular target: High affinity nerve growth factor receptor (Homo sapiens, UniProt P04629); type: functional;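 also: NTRK1 tested as one member of a kinome-wide profiling panel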
[23] = molecular target: Glycogen synthase kinase-3 alpha (Homo sapiens, UniProt P49840); type: functional;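 also: GSK3A result taken from a broad kinome-wide kinase panel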
[24] = molecular target: Glycogen synthase kinase-3 beta (Homo sapiens, UniProt P49841); type: functional;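 also: value comes from a broad kinome profiling panel, with GSK3B as the panel member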
[25] = molecular target: Serine/threonine-protein kinase MRCK alpha (Homo sapiens, UniProt Q5VT25); type: functional
[26] = miR-122 activators in hepatoma reporter cells, dose response, cell-based, Huh7 psiCHECK-miR122, Renilla luciferase, cherry-picked (AID 651956); type: functional;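 also: huh7 hepatoma cells stably carrying a psiCHECK-2 miR-122 sensor plasmid; renilla luciferase signal reporting endogenous miR-122 activity after 48 h compound exposure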

T2 sequence (P65502 whole entry): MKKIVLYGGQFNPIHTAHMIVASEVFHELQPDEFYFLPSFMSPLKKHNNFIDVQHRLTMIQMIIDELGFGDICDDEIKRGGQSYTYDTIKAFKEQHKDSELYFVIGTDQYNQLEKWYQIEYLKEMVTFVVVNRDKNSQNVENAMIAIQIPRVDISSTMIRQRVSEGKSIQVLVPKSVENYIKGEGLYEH
T3 sequence (Q9P0U3 whole entry, the tested form may be a part): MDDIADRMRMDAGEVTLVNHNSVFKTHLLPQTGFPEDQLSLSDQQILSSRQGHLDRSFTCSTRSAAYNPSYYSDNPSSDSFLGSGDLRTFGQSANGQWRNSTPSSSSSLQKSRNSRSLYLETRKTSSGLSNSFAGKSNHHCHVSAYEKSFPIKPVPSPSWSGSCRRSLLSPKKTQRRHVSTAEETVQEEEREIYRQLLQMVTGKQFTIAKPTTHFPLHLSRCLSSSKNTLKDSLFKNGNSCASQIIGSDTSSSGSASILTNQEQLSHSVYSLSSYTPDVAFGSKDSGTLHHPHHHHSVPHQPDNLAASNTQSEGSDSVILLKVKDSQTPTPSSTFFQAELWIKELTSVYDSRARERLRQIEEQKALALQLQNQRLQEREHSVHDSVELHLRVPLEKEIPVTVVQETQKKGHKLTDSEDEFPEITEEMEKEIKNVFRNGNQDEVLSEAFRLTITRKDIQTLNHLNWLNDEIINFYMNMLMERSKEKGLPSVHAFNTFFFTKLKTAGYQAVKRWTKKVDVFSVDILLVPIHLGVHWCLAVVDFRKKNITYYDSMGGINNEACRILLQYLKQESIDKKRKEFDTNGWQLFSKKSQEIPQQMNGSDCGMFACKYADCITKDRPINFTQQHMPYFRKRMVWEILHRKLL
Cell division cycle 7-related protein kinase, sequence (O00311 whole entry): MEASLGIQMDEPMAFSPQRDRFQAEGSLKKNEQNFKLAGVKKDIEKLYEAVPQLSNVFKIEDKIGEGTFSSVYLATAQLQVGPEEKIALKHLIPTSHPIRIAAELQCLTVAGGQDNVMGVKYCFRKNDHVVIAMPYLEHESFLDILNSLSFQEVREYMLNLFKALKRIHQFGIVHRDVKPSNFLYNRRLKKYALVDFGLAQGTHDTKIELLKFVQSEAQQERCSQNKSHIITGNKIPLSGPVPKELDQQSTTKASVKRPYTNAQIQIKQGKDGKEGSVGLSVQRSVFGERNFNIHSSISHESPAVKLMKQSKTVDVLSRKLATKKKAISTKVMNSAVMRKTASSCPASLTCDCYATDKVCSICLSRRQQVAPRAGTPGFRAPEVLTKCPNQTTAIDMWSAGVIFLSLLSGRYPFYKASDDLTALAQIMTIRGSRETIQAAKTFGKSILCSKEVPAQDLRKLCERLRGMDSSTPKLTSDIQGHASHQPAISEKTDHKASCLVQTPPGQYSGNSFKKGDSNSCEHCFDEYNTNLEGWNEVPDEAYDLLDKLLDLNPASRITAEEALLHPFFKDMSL
Serine/threonine-protein kinase MRCK alpha, sequence (Q5VT25 whole entry): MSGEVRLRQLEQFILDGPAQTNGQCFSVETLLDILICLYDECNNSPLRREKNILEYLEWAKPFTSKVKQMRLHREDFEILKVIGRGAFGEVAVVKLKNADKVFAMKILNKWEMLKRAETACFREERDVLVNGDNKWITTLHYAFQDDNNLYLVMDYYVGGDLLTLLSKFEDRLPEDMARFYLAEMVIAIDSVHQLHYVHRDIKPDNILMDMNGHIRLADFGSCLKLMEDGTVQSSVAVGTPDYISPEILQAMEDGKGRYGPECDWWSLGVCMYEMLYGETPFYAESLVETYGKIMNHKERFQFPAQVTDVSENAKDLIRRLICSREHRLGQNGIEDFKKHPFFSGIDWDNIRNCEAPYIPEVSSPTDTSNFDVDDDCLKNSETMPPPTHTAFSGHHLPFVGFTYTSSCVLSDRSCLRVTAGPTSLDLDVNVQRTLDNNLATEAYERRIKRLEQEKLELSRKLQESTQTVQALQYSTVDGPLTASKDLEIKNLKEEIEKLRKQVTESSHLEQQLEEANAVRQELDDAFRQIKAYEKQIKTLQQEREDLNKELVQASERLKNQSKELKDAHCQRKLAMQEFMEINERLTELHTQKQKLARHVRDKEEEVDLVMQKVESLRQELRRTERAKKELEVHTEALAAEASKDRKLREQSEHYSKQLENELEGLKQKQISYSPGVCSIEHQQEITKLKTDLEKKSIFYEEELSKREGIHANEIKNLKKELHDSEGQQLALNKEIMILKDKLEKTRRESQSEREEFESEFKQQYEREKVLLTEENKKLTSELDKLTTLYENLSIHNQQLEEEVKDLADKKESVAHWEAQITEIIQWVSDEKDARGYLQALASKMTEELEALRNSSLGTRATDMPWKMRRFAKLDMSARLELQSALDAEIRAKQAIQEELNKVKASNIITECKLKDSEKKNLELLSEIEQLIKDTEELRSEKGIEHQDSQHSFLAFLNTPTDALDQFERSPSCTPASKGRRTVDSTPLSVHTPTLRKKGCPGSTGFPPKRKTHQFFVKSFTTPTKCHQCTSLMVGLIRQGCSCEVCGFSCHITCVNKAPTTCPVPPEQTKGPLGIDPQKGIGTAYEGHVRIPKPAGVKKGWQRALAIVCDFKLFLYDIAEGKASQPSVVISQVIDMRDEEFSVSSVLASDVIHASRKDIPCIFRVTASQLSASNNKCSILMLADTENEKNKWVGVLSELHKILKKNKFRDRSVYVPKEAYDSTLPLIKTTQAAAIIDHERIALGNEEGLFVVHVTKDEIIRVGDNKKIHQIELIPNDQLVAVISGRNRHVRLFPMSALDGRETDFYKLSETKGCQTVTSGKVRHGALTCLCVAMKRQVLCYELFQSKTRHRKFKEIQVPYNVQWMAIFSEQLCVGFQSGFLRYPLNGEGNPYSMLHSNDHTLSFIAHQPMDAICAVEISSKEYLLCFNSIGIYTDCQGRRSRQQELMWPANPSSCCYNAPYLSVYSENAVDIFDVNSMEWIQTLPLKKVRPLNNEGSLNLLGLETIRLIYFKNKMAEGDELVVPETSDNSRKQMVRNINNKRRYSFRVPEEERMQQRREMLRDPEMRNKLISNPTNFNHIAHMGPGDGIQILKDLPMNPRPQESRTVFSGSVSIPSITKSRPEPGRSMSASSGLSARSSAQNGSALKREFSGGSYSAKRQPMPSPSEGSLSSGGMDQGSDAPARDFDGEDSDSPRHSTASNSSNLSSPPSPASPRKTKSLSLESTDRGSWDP
Tyrosine-protein phosphatase non-receptor type 5, sequence (P54829 whole entry): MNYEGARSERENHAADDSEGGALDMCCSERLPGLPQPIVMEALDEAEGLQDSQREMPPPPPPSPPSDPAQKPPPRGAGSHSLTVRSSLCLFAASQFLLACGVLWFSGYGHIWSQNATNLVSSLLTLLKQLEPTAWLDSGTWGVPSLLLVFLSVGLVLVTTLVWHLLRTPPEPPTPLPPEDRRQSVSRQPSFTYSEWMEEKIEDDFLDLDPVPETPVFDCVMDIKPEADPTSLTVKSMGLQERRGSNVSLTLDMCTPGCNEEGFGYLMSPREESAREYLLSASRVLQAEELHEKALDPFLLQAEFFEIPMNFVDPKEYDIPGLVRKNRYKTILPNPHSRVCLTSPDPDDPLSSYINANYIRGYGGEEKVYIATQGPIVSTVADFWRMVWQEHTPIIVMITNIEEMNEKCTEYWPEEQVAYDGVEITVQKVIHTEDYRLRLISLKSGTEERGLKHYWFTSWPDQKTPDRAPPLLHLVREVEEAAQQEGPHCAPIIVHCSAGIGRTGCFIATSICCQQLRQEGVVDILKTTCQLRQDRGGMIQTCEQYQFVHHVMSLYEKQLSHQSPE
UDP-galactopyranose mutase, sequence (P9WIQ1 whole entry): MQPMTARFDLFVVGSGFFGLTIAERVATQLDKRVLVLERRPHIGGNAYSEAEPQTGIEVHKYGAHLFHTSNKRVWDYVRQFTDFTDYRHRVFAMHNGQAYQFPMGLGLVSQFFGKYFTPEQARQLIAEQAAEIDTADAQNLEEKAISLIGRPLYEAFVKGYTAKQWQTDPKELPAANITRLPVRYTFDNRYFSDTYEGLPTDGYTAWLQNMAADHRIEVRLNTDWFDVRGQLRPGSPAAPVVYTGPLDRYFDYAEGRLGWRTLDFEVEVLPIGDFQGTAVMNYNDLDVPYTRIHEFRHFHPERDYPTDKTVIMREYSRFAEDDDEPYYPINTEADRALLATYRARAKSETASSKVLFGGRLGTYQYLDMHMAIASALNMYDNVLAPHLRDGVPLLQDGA
Potassium voltage-gated channel subfamily KQT member 2, sequence (O88943 whole entry, the tested form may be a part): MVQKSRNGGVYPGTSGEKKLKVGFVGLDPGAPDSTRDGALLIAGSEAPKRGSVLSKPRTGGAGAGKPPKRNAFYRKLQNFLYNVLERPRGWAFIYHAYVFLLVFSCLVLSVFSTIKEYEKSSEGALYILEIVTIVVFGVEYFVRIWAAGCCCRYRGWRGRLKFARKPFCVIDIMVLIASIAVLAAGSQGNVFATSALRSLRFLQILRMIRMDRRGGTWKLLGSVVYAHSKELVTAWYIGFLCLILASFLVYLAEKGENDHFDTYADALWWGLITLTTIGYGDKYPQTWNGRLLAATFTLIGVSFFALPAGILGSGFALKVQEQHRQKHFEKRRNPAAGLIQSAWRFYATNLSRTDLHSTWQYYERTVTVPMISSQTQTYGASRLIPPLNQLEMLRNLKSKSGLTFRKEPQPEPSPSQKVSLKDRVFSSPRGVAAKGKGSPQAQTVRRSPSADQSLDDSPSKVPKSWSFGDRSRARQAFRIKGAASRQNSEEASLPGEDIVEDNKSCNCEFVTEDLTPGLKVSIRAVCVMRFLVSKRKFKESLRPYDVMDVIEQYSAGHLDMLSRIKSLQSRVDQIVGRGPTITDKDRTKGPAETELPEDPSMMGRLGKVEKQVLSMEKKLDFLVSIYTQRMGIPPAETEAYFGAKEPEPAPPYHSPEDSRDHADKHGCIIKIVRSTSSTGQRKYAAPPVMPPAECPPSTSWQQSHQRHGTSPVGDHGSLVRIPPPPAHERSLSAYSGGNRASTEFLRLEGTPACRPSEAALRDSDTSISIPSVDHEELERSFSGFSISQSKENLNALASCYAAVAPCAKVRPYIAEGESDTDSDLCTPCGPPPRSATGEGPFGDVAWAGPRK

Cc1csc2nc(CSc3ccc(Cl)cc3)cn12
IC50 [1]: 4.2 µM (active)

O=C1c2cccnc2C(=O)N1Cc1ccc(S(=O)(=O)NCc2ccco2)s1
AC50 [2]: 98.4 µM (active)

COc1cc(/C=C/C(=O)c2ccc(Cl)s2)cc(OC)c1O
IC50 [3]: 6.66 µM (active)

Cc1cccc(N2C(=O)c3cccc4c(N)ccc(c34)C2=O)c1
AC50 (Keap1/Nrf2): 1.82 µM (active)
AC50 [4]: 1.79 µM (active)
IC50 (Beta-lactamase [5]): 10.1 µM (inactive)
IC50 (Beta-lactamase [6]): 21.4 µM (inactive)
AC50 (ORF 73): 5.93 µM (active)

CCOC(=O)c1ccccc1NC(=O)c1ccc2c(SCC(=O)O)c3c(nc2c1)CCCC3
AC50 [7]: > 30 µM (inactive)
IC50 [8]: 5.7 µM (active)
IC50 [9]: 25 µM (active)

O=C1CC[C@@H]2C[C@@]3(C[C@@H]4CCN1[C@H]24)Nc1cc([N+](=O)[O-])ccc1N=C3NCc1ccccc1
IC50 [10]: 18.3 µM (active)
IC50 [11]: 9.31 µM (active)

Cc1c(CC(=O)O)c(=O)oc2c(C)c(OCc3ccccc3Br)ccc12
IC50 [12]: 7.43 µM (active)
IC50 [13]: 13.4 µM (active)
IC50 [14]: 6.67 µM (active)
IC50 [15]: 3.92 µM (active)

CCCc1ccc(-c2cc(C(=O)N/N=C/c3ccc([N+](=O)[O-])o3)c3ccccc3n2)cc1
EC50 (Streptokinase A): > 150 µM (not active)
EC50 (Streptococcus): 2.59 µM (active)
EC50 [16]: 2.75 µM (active)
AC50 (HEK293): 2.89 µM (active)
AC50 [17]: 112 µM (active)
EC50 [18]: 8.91 µM (active)
EC50 [19]: 0.194 µM (active)

COC(=O)[C@@H]1COC(c2ccc(OC)c(C(F)(F)F)c2)=N1
EC50 [20]: > 100 µM (inactive)

NC(=O)c1ccc(-c2c[nH]c3nc(N)nc(NCc4c(F)cccc4F)c23)cc1
Ki [21]: 0.1 µM (active)
Ki [22]: 2.51 µM (active)

CC(=O)Nc1nonc1-n1nnc(C(=O)NN=Cc2cccs2)c1-c1ccccc1
Ki [23]: 3.16 µM (active)
Ki [24]: 6.31 µM (active)
Ki [25]: 10 µM (active)

CN1C(=O)c2cc(NC(=O)c3cccs3)ccc2OC[C@H]2O[C@H](CC(=O)NCCN3CCCCC3)CC[C@@H]21
AC50 [26]: 43.3 µM (active)
